Columns and labels:
stimulated PBMC cultures [1] = assay: Cytokine secretion from stimulated PBMC cultures (Cytometric Bead Array); type: cell-based, human; conditions: COX-2 inhibitor in combination with sCD83
Procedure: (§1) To evaluate cytokine secretion from stimulated PBMC cultures in response to sCD83 treatment, the supernatant was collected after culture and analyzed for human cytokines using the Cytometric Bead Array kit (BD® Biosciences) according to the manufacturer's instructions. Data were analyzed using the FCAP Array software (BD® Biosciences). PGE2 concentrations were measured using a competitive ELISA kit (Thermofisher).

stimulated PBMC cultures [2] = assay: PGE2 secretion from stimulated PBMC cultures (competitive ELISA); type: cell-based, human; conditions: COX-2 inhibitor in combination with sCD83; FIG. 9E
Procedure: as §1

MD-2 binding to sCD83-m3 = molecular target: T1, MD-2 binding to sCD83-m3 (Homo sapiens, UniProt Q9Y6Y9); assay: LPS derivatives pre-incubated with MD-2; loss of MD-2 binding to sCD83 (cell free ELISA); conditions: for % inhibition of MD-2 binding to sCD83-m3: LPS derivatives pre-incubated with MD-2, cell free ELISA; for blocking of MD-2 binding to sCD83: FIG. 6B
T1 sequence (Q9Y6Y9 17-160 limits assumed): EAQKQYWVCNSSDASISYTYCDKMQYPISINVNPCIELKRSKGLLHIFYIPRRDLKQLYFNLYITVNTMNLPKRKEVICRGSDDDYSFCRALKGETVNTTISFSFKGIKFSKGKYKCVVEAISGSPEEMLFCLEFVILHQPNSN
Procedure: sCD83 was prepared at 1 μg/mL in Coating Buffer (BD® Bioscience OptEIA ELISA Reagent Set B) and incubated overnight at 4° C. Plates were washed with wash buffer (PBS with 0.05% Tween 20, BD® Bioscience OptEIA Reagent Set B) three times using an ELx405 auto plate washer and then 300 μl of blocking buffer (1% BSA in PBS) was added to each well. The plates were then incubated for 2 hours at 37° C. to block and then washed three times with wash buffer. The protein of interest (MD-2, CD14, MD-2+LPS, or LPS) (R&D Systems®, Inc., Sigma) was serially diluted in seven tubes, and then 100 μl of the diluted protein samples were transferred to the appropriate wells on the capture plate. The plates were then incubated for 1 hour at room temperature in the dark. Plates were washed and goat anti-human biotinylated CD83 detection antibody (R&D Systems®, Inc.) was added at 100 μl/well and incubated for 2 hours at room temperature in the dark. The plates were then washed, and streptavidin-HRP was prepared at a 1:1000 dilution and added at 100 μl/well. The plates were incubated for 1 hour at room temperature in the dark and then washed, and development solution was prepared by combining equal parts of Substrate A plus Substrate B (BD® OptEIA ELISA Reagent Set B) and added to the plates (100 μl/well). The plates were allowed to develop for 1-10 minutes and the reaction was stopped by adding 50 μl/well of stop solution (BD® OptEIA reagents set B). The plates were analyzed on a ELx800 universal microplate reader at 450 nm.
In order to map the sCD83 binding site on MD-2, recombinant MD-2 protein was pre-incubated with each of several LPS derivatives prior to being added to plates coated with sCD83 protein. […] If MD-2 bound to LPS or the LPS derivatives blocked sCD83 binding, the interaction of sCD83 with MD-2 may mimic antagonist regulation of TLR signaling.

[3] = tested on: sCD83-m3 binding on monocytes; assay: Antibody blocking of sCD83-m3 binding to PBMCs / monocytes (Example 2); design: species or system human; conditions: post-thaw PBMCs
Procedure: For antibody blocking experiments, cells were pre-incubated with the indicated purified antibodies to CD14 (clone M5E2, BD® Biosciences; clone 61D3, eBioscience® Corp.; clone My4, Beckman Coulter®, Inc.), to CD44s (clone 515, BD® Biosciences; clone 1M7, eBioscience® Corp.; and clone 156-3c11 and clone 5F12, Invitrogen® Corp.), to CD44v6 (clone VFF-7, eBiosciences® Corp.) to TLR4/MD-2 (clone MTS510, eBioscience® Corp.) or to MD-2 (clone 984, eBioscience® Corp.; clone 288307, R&D Systems®, Inc.) for 15 minutes at room temperature without washing prior to addition of sCD83 protein. Isotype control IgG1 and IgG2a antibodies were purchased from eBioscience® Corp.. Cells were washed with 2 mL BD® Stain Buffer (FBS) and incubated with 5 μl of Goat anti-human CD83 biotin (R&D Systems®, Inc.) for 15 minutes at room temperature. Cells were washed twice with 2 ml BD® Stain Buffer (FBS) and incubated with 20 μl of Streptavidin APC (BD® Biosciences) for 15 minutes at room temperature. Background staining was determined without the addition of sCD83 protein. […]

IRAK-1 [4] = assay: Western blotting of GM-CSF-cultured monocytes; type: cell-based, human; conditions: 60 minutes; 25 μg/ml sCD83 or 100 ng/ml LPS; FIG. 7A
Procedure: Monocytes were isolated from PBMC using negative selection (Stemcell) and cultured in R-10 medium ((10% fetal bovine serum (FBS; Atlanta Biologicals), Roswell Park Memorial Institute-1640 (supplemented with 10 mM 4-2-hydroxyethyl-1-piperazineethanesulfonic acid pH 7.4, 1 mM sodium pyruvate, 0.1 mM nonessential amino acids, 2 mM sodium glutamate, and […] 2-mercaptoethanol; Invitrogen® Corp.)) with GM-CSF overnight. sCD83 or LPS was then added for the indicated time points. Cells were lysed in ice cold RIPA buffer in the presence of a protease/phosphatase inhibitor cocktail ([…]). Bradford (BCA) protein assay (Thermo Scientific) was performed to determine total protein concentrations. 4-5 μg of each lysate sample was run on each lane of a Criterion 10-20% Tris-HCL gel at 200V for 50 minutes. The gel was transferred to PVDF membrane at 100V for 75 minutes. […]
The inventors studied the expression of IRAK proteins in the presence of sCD83. […] IRAK-1 protein was detected in untreated cultures and LPS-treated cultures, in contrast to cultures treated with sCD83 (FIG. 7A). Furthermore, no change in IRAK-2, IRAK-4, and IRAK-M protein levels was detected when cells were treated with sCD83 for 60 minutes.

IRAK-1 [5] = assay: IRAK assay of CD83 activity in macrophage cultures (Western blot); type: cell-based, human
Procedure: The IRAK Assay measures the rapid down-regulation of IRAK-1 protein by sCD83 in macrophage cultures. PBMCs were cultured in the presence of GM-CSF for 5 days. Macrophages were harvested and cultured overnight in media containing GM-CSF, then incubated in the presence or absence of a test antibody in 1 mL cultures for various times. Cell lysates were then used to prepare a Western blot and evaluated for IRAK expression as described in more detail in working Example 3.
One vial (2×10^8 total cells) of 2124557 PBMCs were thawed and cultured in T-150 flask with 1000 U/mL GM-CSF for 5 days. The macrophages were harvested, counted and resuspended at 1×10^6 cells/mL in R-10 media with GM-CSF and then cultured overnight. The cells were incubated with various preparations of sCD83 polypeptides, +/−25 μg/mL in 1 mL cultures for various times and then lysed in ice cold RIPA buffer with protease/phosphatase inhibitor cocktail. Bradford (BCA) protein assay was performed to determine total protein concentration.
4-5 μg of each lysate sample was run on a lane of a Criterion 10-20% Tris-HCL gel at 200V for 50 minutes. The gel was transferred to PVDF membrane at 100V for 75 minutes. […]

## CS(=O)(=O)Nc1ccc([N+](=O)[O-])cc1OC1CCCCC1 [NS-398]
Stimulated PBMC cultures [1]; FIG. 9C
  IL-6 secretion: marginal effect
Stimulated PBMC cultures [1]; FIG. 9D
  sCD83 induced IL-10 secretion: suppressed sCD83 inducted IL-10 secretion
Stimulated PBMC cultures [2]
  PGE2 production: blocked PGE2 production

## KDO-lipid A [KDO-Lipid A variant]
MD-2 binding to sCD83-m3
  % inhibition of MD-2 binding to sCD83-m3: 93%
MD-2 binding to sCD83-m3; added first to sCD83 bound plates and washed prior to addition of MD-2 protein
  blocking of MD-2 binding to sCD83: no longer blocked MD-2 binding to sCD83
MD-2 binding to sCD83-m3; pre-incubated with MD-2
  blocking of MD-2 binding to sCD83: prevented MD-2 binding to sCD83
MD-2 binding to sCD83-m3; pre-incubated with MD-2, listed as KDO
  blocking of MD-2 binding to sCD83: blocks sCD83 binding to MD-2

## diphosphoryl-Lipid A [Lipid A Diphos]
MD-2 binding to sCD83-m3
  % inhibition of MD-2 binding to sCD83-m3: 19%

## lipopolysaccharide [LPS]
MD-2 binding to sCD83-m3
  % inhibition of MD-2 binding to sCD83-m3: 25%
[3]
  % inhibition (relative to control): 5%
IRAK-1 [4]
  IRAK-1 protein expression: detected
IRAK-1 [5]
  down-regulation of IRAK-1 protein in macrophage cultures: does not have this effect
IRAK-1 [5]; macrophages, 25 μg/mL
  IRAK assay result: negative result

## monophosphoryl-Lipid A [Lipid A Monophos]
MD-2 binding to sCD83-m3
  % inhibition of MD-2 binding to sCD83-m3: 22%

— US20190315878A1, “BISPECIFIC ANTIBODIES THAT MODULATE TLR-4 SIGNALING AND USES THEREOF” (ARGOS THERAPEUTICS INC., priority 2016, published 2019)
